Data taken from patent publication US10160785B2, “Antimicrobial peptides and their use for the treatment of topical infections” (priority 2015, dated 2018).

Columns and labels:
[1] = system: Staphylococcus aureus Motol; conditions: Staphylococcus aureus Motol clinical isolate; 37° C., 20 h
Procedure: (§1) Gram-positive bacteria (Micrococcus luteus, Bacillus subtilis, Staphylococcus aureus, Staphylococcus epidermidis and Enterococcus faecalis), Gram-negative bacteria (Escherichia coli and Pseudomonas aeruginosa) and the yeast (Candida albicans) were grown to exponential phase and then were diluted with fresh medium. BHI medium (Oxoid, Great Britain) was used for Enterococcus faecalis; YPD medium containing yeast extract peptone and glucose was used for Candida albicans and LB medium (Sigma, Czech Republic) was used for the remaining microorganisms. Then the microorganisms were added to the solutions of the tested antimicrobial peptides in LB medium in multi-well plates. The final peptide concentration it the wells was in the range of 0.1 to 100 μmol.l^−1. That was made by twofold serial dilution from the peptide stock solution (1 mmol.l^−1). The plates were incubated at 37° C. for 20 h while being continuously shaken in a Bioscreen C (Oy Growth Curves AB Ltd., Helsinki, Finland). Absorbance was measured at 540 nm every 15 min. Antimicrobial activity (Table 2) was determined as a quantitative minimum inhibitory concentration (MIC) by observing bacterial growth in the presence of different concentrations of tested peptides. In the experiments ca 10^5 CFU of bacteria or candida per well were routinely used.
(§2) Multiresistant clinical isolates of bacteria were obtained from University Hospital in Motol, Prague, Czech Republic and from Liberec Regional Hospital, Czech Republic. Methicillin resistant Staphylococcus aureus (MRSA) 6271 and Pseudomonas aeruginosa 5482 were from the Czech National Collection of Type Cultures, the National Institute of Public Health, Prague, Czech Republic. Other bacteria were from the Czech Collection of Microorganisms, Brno, Czech Republic. Candida albicans came from the Faculty of Medicine, Palacky University, Olomouc, Czech Republic.

[2] = system: Methicillin resistant Staphylococcus aureus (MRSA) 6271; conditions: 37° C., 20 h
Procedure: as §1, §2

[3] = system: Staphylococcus epidermidis Motol; conditions: 37° C., 20 h
Procedure: as §1, §2

Candida albicans Olomouc = conditions: for Antimicrobial activity MIC C. a. Olomouc: Candida albicans Olomouc, YPD medium, 37° C., 20 h (Example 2)
Procedure: as §1, §2

[4] = system: Pseudomonas aeruginosa 5482; conditions: 37° C., 20 h
Procedure: as §1, §2

Escherichia coli = conditions: 37° C., 20 h
Procedure: as §1, §2

[5] = system: Pseudomonas aeruginosa Liberec; conditions: for Antimicrobial activity MIC P. a. Liberec: Pseudomonas aeruginosa Liberec, 37° C., 20 h
Procedure: as §1, §2

[6] = system: Staphylococcus aureus Liberec; conditions: for Antimicrobial activity MIC S. a. Liberec: Staphylococcus aureus Liberec clinical isolate, 37° C., 20 h
Procedure: as §1, §2

Bacillus subtilis = conditions: for Antimicrobial activity MIC B. s.: Bacillus subtilis, 37° C., 20 h
Procedure: as §1, §2

[7] = system: Enterococcus faecalis Motol; conditions: BHI medium, 37° C., 20 h
Procedure: as §1, §2

[8] = system: Candida albicans (Olomouc); assay: microbe, parasite or virus in culture; type: cell-based; conditions: RPMI broth microdilution, 35° C., 48 hours, visual
Procedure: (§3) All yeasts Candida albicans (Olomouc) and ATCC MYA-2876, Candida glabrata ATCC 2001 and DSY 565, Candida dubliniensis ATCC MYA-646, Candida krusei ATCC 6258 and Candida tropicalis ATCC 750 were sub-cultured from sterile vials onto Sabouraud dextrose agar, which was composed of 40 g dextrose (Penta, Czech Republic), 10 g peptone (OXOID, Great Britain) and 17 g agar (OXOID), dissolved in 1 l of distilled water, and cultivated for 24 hours at 35° C.
(§4) All strains were stored in a way that minimizes the possibility of mutation. Candida spp. were grown overnight in liquid YPD medium which is composed of 10 g yeast extract (DIFCO, USA), 20 g peptone (OXOID), and 20 g dextrose (Penta) dissolved in 1 l distilled water. Then the overnight culture was cryogenically preserved by suspending in 50% glycerol solution (1:1) in small vials and stored at −80° C.
(§5) The inoculum was prepared by picking five colonies from 24-hour-old cultures of Candida spp. The colonies were suspended in 1 ml of sterile saline solution and vortexed for 15 seconds. Optical density of the suspension was adjusted spectrophotometrically by adding sterile saline solution to produce optical density of 0.18 at 600 nm. A working suspension was made by a 1:50 dilution followed by a 1:20 dilution of the stock suspension with RPMI 1640 broth medium which was composed of L-glutamine without NaHCO3 (BioSera, France), and with 0.165 mol.l^−1 MOPS (Duchefa, Netherland)—further as RPMI broth medium.
(§6) The broth microdilution test was performed by using sterile, disposable, multi-well microdilution plates (96-well). The peptides in the concentrations 0.625-160 μmol.l^−1 were pipetted into the wells in 100 μl volumes. Each well of the plate was inoculated with 100 μl of the diluted inoculum suspension. Final yeast density in each well was 5×10^2 up to 2.5×10^3 CFU/ml. The microdilution plates were incubated without shaking at 35° C. and observed for the presence or absence of visible growth for 48 hours.
(§7) Drug-free medium without inoculation served as negative control; the growth positive control contained inoculated drug-free medium. Amphotericin B was used as control drug to ensure quality of Candida strains.
(§8) The minimal inhibition concentrations (MICs) were visually determined 48 hours after inoculation. The MIC values were defined as the lowest concentration in which no observable growth is noticeable.
(§9) All yeast isolates were obtained from the Institute of Physiology of the Academy of Sciences of the Czech Republic. Candida albicans (Olomouc) came from the Faculty of Medicine and Dentistry, Palacý University Olomouc.

[9] = system: Candida glabrata ATCC 2001; assay: microbe, parasite or virus in culture; type: cell-based; conditions: RPMI broth microdilution, 35° C., 48 hours, visual
Procedure: as §3, §4, §5, §6, §7, §8, §9

[10] = system: Candida tropicalis ATCC 750; assay: microbe, parasite or virus in culture; type: cell-based; conditions: RPMI broth microdilution, 35° C., 48 hours, visual
Procedure: as §3, §4, §5, §6, §7, §8, §9

Candida krusei ATCC 6258 = assay: microbe, parasite or virus in culture; type: cell-based; conditions: RPMI broth microdilution, 35° C., 48 hours, visual
Procedure: as §3, §4, §5, §6, §7, §8, §9

[11] = system: Candida dubliniensis ATCC MYA-646; assay: microbe, parasite or virus in culture; type: cell-based; conditions: RPMI broth microdilution, 35° C., 48 hours, visual
Procedure: as §3, §4, §5, §6, §7, §8, §9

[12] = system: Candida albicans ATCC MYA-2876; assay: microbe, parasite or virus in culture; type: cell-based; conditions: RPMI broth microdilution, 35° C., 48 hours, visual
Procedure: as §3, §4, §5, §6, §7, §8, §9

Candida glabrata DSY 565 = assay: microbe, parasite or virus in culture; type: cell-based; conditions: RPMI broth microdilution, 35° C., 48 hours, visual
Procedure: as §3, §4, §5, §6, §7, §8, §9

P. aeruginosa (Liberec) = assay: Synergistic effect of peptides with antibiotics, FIC index; type: cell-based, Pseudomonas aeruginosa; conditions: FIC <0.5 synergism, 0.5-2 additive, >2 antagonism, averages of three experiments; for FIC indexes (fractional inhibitory concentration) Combination with RIF against P. aeruginosa: peptide combined with rifampicin; for FIC indexes (fractional inhibitory concentration) Combination with TET against P. aeruginosa: peptide combined with tetracycline
Procedure: MICs values of various combinations of two fold serial dilutions of peptides and antibiotics were determined using the same methodology as in the case of antimicrobial activity determination (Example 2). To consider the type of the final effect, FIC indexes (fractional inhibitory concentration) were used and calculated as follows:
[formula] where MICPC and MICAC are the MICs of the peptide and antibiotic in combination, respectively, and MICP and MICA are the MICs of the peptide and antibiotic tested alone, respectively. FIC<0.5 were considered as synergy, 0.5≤FIC≤2 as addition effect, and FIC>2 as antagonism.

in vitro = conditions: human
Procedure: The peptides in the concentrations 2-200 μmol.l^−1 were incubated with the suspension of human red blood cells (5% v/v) for 1 h at 37° C. in a physiological solution at a final volume of 0.2 ml. The samples were then centrifuged for 5 min at 250 g, and the absorbance of the supernatant was determined at 540 nm. Supernatants of red blood cells suspended in physiological solution and in 0.2% (v/v) TRITON X100 in physiological solution served as controls for zero hemolysis (blank) and 100% hemolysis, respectively. Hemolytic activity is expressed as the peptide concentration required for lysis of 50% of human erythrocytes in the assay (LC50).

Micrococcus luteus = system: Micrococcus luteus
Procedure: as §1, §2

[13] = synthetically prepared hylanine, in words

| Compound | Antimicrobial activity MIC S. a. Motol [1] [µM] | Antimicrobial activity MIC S. a. 6271 [2] [µM] | Antimicrobial activity MIC S. e. Motol [3] [µM] | Antimicrobial activity MIC C. a. Olomouc (Candida albicans Olomouc) [µM] | Antimicrobial activity MIC P. a. 5482 [4] [µM] | Antimicrobial activity MIC E. c. (Escherichia coli) [µM] | Antimicrobial activity MIC P. a. Liberec [5] [µM] | Antimicrobial activity MIC S. a. Liberec [6] [µM] | Antimicrobial activity MIC B. s. (Bacillus subtilis) [µM] | Antimicrobial activity MIC E. f. Motol [7] [µM] | Antifungal activity MIC C. albicans Olomouc [8] [µM] | Antifungal activity MIC C. glabrata ATCC 2001 [9] [µM] | Antifungal activity MIC C. tropicalis ATCC 750 [10] [µM] | Antifungal activity MIC C. krusei ATCC 6258 (Candida krusei ATCC 6258) [µM] | Antifungal activity MIC C. dubliniensis ATCC MYA-646 [11] [µM] | Antifungal activity MIC C. albicans ATCC MYA-2876 [12] [µM] | Antifungal activity MIC C. glabrata DSY 565 (Candida glabrata DSY 565) [µM] | FIC indexes (fractional inhibitory concentration) Combination with RIF against P. aeruginosa (P. aeruginosa (Liberec)) | FIC indexes (fractional inhibitory concentration) Combination with TET against P. aeruginosa (P. aeruginosa (Liberec)) | HC50 at 1 h (in vitro) [µM] | other results |
| --- | --- | --- | --- | --- | --- | --- | --- | --- | --- | --- | --- | --- | --- | --- | --- | --- | --- | --- | --- | --- | --- |
| H-GILSSLWKKLKKWIAK-NH2 [XVII] | 2.0 | 2.5 | 1.6 | 12.7 | 12.7 | 2.5 | 24.1 | 1.6 | 1.3 | 10.0 | 4.5 | 5.5 | 0.8 | 3.3 | 5.0 | 5.5 | 11.0 | 0.292 | 0.417 | 57.2 |  |
| H-GIMSSLMKKLAAHIAK-NH2 [hylanine, reference compound] |  |  |  |  |  |  |  |  |  |  |  |  |  |  |  |  |  |  |  |  | antimicrobial activity against Micrococcus luteus (Micrococcus luteus; [13]): high antimicrobial activity; activity against the yeast Candida albicans (Candida albicans Olomouc; [13]): moderate activity; activity against Pseudomonas aeruginosa ([5]; all strains, in words): weak; activity against Staphylococcus aureus ([6]; all strains of pathogenic Staphylococcus aureus, in words): weak; antimicrobial activity against Bacillus subtilis (Bacillus subtilis; [13]): high antimicrobial activity |
| CN(C)[C@@H]1C(=O)C(C(N)=O)=C(O)[C@@]2(O)C(=O)C3=C(O)c4c(O)cccc4[C@@](C)(O)[C@H]3C[C@@H]12 [Tetracyklin, Tetracycline, reference compound] | 2.0 | 0.9 | >100 |  | 28.7 | 2.7 | 70.4 | 1.1 | 16.0 | 40.0 |  |  |  |  |  |  |  |  |  |  | Antimicrobial activity MIC M. l. (Micrococcus luteus; Micrococcus luteus, 37° C., 20 h): 0.8 µM |
| H-GILSSLLKKLKKWIAK-NH2 [XVIII] | 4.0 | 8.0 | 1.6 | 16.0 | 8.0 | 4.0 | 20.7 | 2.5 | 1.3 | 25.3 | 8.5 | 8.5 | 1.2 | 7.8 | 10.0 | 10.0 | 24.0 | 0.271 | 0.625 | 160 |  |
